Results: ChEMBL document CHEMBL3393032, “Synthesis of oolongtheanins and their inhibitory activity on micellar cholesterol solubility in vitro” (Bioorg Med Chem Lett, 2015)

Experiment: Inhibition of micellar solubility of cholesterol assessed as cholesterol solubility at 10 g/L using [4-14C]cholesterol incubated at 37 degC for 1 hr by liquid scintillation counting method
Assay type: physicochemical
Set-up: scale not given: the % may be the effect or the level left

Activity [%]	Structure (SMILES)
26.39	O=C1C(O)=C[C@@]2([C@H]3Oc4cc(O)cc(O)c4C[C@H]3O)Oc3c(O)c(O)cc([C@H]4Oc5cc(O)cc(O)c5C[C@H]4O)c3[C@@H]12
1.4	O=C(O[C@@H]1Cc2c(O)cc(O)cc2O[C@@H]1c1cc(O)c(O)c2c1[C@H]1C(=O)C(O)=C[C@@]1([C@H]1Oc3cc(O)cc(O)c3C[C@H]1OC(=O)c1cc(O)c(O)c(O)c1)O2)c1cc(O)c(O)c(O)c1
